Test results: paper PMC9245717, “Phylogenomic and functional characterization of an evolutionary conserved cytochrome P450-based insecticide detoxification mechanism in bees” (Proceedings of the National Academy of Sciences of the …, 2022)

Legend:
[1] = tested on: T1, Melitta hemorrhoidalis CYP9FU3; test: fluorescent probe saturation kinetics, Michaelis-Menten; parameters: species or system Melitta haemorrhoidalis; details: NADPH; recombinant microsomes
T1 construct: recombinant, baculovirus, High-5 (Trichoplusia ni) cell microsomes; coexpressed with A. mellifera CPR (XP_006569769.1)

[2] = tested on: T2, Xylocopa violacea CYP9Q18; test: as above; assay type: biochemical; details: NADPH; recombinant microsomes
T2 construct: recombinant, baculovirus, High-5 (Trichoplusia ni) cell microsomes; coexpressed with A. mellifera CPR (XP_006569769.1)

Andrena vaga CYP9FT2 = tested on: T3, Andrena vaga CYP9FT2; test: as above; assay type: biochemical; details: NADPH; recombinant microsomes
T3 construct: recombinant, baculovirus, High-5 (Trichoplusia ni) cell microsomes; coexpressed with A. mellifera CPR (XP_006569769.1)

[3] = tested on: T4, Colletes cunicularius CYP9FZ2; test: as above; assay type: biochemical; details: NADPH; recombinant microsomes
T4 construct: recombinant, baculovirus, High-5 (Trichoplusia ni) cell microsomes; coexpressed with A. mellifera CPR (XP_006569769.1)

A. mellifera CYP9Q3 = target: T5, A. mellifera CYP9Q3 (Apis mellifera, UniProt A0A7M7LMV1); test: UPLC-MS/MS depletion and metabolite formation assay; assay type: biochemical; details: 10 µM substrate; NADPH regeneration system; 2 h, 30 °C; recombinant microsomes
T5 construct: gene LOC408453; recombinant, baculovirus, High-5 (Trichoplusia ni) cell microsomes; coexpressed with A. mellifera CPR (XP_006569769.1)
T5 sequence (A0A7M7LMV1 1-517): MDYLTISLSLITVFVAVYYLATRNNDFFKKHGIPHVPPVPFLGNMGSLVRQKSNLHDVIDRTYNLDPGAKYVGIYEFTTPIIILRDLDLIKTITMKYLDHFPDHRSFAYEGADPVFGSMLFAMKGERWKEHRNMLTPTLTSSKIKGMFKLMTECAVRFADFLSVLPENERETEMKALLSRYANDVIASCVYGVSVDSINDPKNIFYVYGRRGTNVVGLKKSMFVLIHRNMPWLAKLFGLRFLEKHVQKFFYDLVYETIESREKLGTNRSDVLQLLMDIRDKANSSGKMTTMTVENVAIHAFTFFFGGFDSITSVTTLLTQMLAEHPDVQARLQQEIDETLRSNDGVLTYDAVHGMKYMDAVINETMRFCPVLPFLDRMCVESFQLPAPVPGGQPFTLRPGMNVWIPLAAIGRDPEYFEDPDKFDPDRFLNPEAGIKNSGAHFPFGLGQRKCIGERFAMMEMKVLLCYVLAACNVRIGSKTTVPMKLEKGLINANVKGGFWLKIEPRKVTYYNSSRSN

Structure (SMILES)	Km [1]	Km [2]	Km (Andrena vaga CYP9FT2)	Km [3]	UPLC-MS/MS depletion and metabolite formation assay (A. mellifera CYP9Q3)
O=c1cc(C(F)(F)F)c2ccc(OCOCc3ccccc3)cc2o1 [BOMFC, 7-benzyloxymethoxy-4-trifluoromethyl coumarin]	8.16 µM	15.2 µM	7.43 µM	14.7 µM	
O=C1C=C(N(Cc2ccc(Cl)nc2)CC(F)F)CO1 [flupyradifurone]					FPF metabolite formation was remarkably uniform among all the P450s tested
